Source: ChEMBL document CHEMBL5620361, “A prodrug of the capsid assembly modulator improved druggability and lowing HBsAg and HBeAg for the treatment of chronic hepatitis B” (Eur J Med Chem, 2023)
Values joined by “and” are separate entries in the source; they are usually repeats but may differ in a detail not shown here. Identical values can stand only once. Active and inactive are the calls of the source. The rule behind the calls is not given here.

Key:
[1] = Prodrug conversion in ICR mouse assessed as Tmax of 3-((3-chloro-5-(3-(4-cyanobenzyl)-4-oxo-3,4-dihydrophthalazin-1-yl)-6-fluoropyridin-2-yl)amino)propanoic acid metabolite at 20 mg/kg, po measured for 24 hrs by LC-MS/MS analysis; format: ADME, organism-based; settings: in vivo
HepG2.2.15 [2] = experiment: Inhibition of HBeAg secretion in human HepG2.2.15 cells harboring HBV genome incubated for 8 days; format: functional, cell-based; settings: Hepatitis B virus, time 8.0 day
Hepatitis B virus [3] = experiment: Antiviral activity against HBV in human HepG2.2.15 cells harboring HBV genome assessed as formation of fast-migrating capsids lacking capsid-associated HBV DNA upto 80 nM by native agarose gel electrophoresis; format: functional, organism-based
[4] = Half life in ICR mouse at 20 mg/kg, po measured for 24 hrs byb LC-MS/MS analysis; format: ADME, organism-based; settings: in vivo
[5] = Cytotoxicity against human HepG2.2.15 cells harboring HBV genome incubated for 8 days by MTT assay; format: toxicity, cell-based, HepG2 2.2.15; settings: time 8 day
HepG2.2.15 [6] = experiment: Inhibition of HBsAg secretion in human HepG2.2.15 cells harboring HBV genome incubated for 8 days; format: functional, cell-based; settings: Hepatitis B virus, time 8.0 day
Hepatitis B virus [7] = experiment: Antiviral activity against HBV in human HepG2.2.15 cells harboring HBV genome assessed as reduction in HBV rcDNA incubated for 8 days by Southern blot analysis; format: functional, organism-based; settings: dose <= 800.0 nM, time 8.0 day
[8] = Prodrug conversion in ICR mouse assessed as AUClast of 3-((3-chloro-5-(3-(4-cyanobenzyl)-4-oxo-3,4-dihydrophthalazin-1-yl)-6-fluoropyridin-2-yl)amino)propanoic acid metabolite at 20 mg/kg, po measured for 24 hrs by LC-MS/MS analysis; format: ADME, organism-based; settings: in vivo
[9] = AUClast in ICR mouse at 20 mg/kg, po measured for 24 hrs byb LC-MS/MS analysis; format: ADME, organism-based; settings: in vivo
[10] = Prodrug conversion in ICR mouse assessed as Cmax of 3-((3-chloro-5-(3-(4-cyanobenzyl)-4-oxo-3,4-dihydrophthalazin-1-yl)-6-fluoropyridin-2-yl)amino)propanoic acid metabolite at 20 mg/kg, po measured for 24 hrs by LC-MS/MS analysis; format: ADME, organism-based; settings: in vivo
Hepatitis B virus [11] = experiment: Antiviral activity against HBV in human HepG2.2.15 cells harboring HBV genome assessed as reduction in HBV ssDNA incubated for 8 days by Southern blot analysis; format: functional, organism-based; settings: dose <= 800.0 nM, time 8.0 day
[12] = Tmax in ICR mouse at 20 mg/kg, po measured for 24 hrs byb LC-MS/MS analysis; format: ADME, organism-based; settings: in vivo
[13] = Cmax in ICR mouse at 20 mg/kg, po measured for 24 hrs byb LC-MS/MS analysis; format: ADME, organism-based; settings: in vivo
Hepatitis B virus [14] = experiment: Antiviral activity against HBV in human HepG2.2.15 cells harboring HBV genome assessed as reduction in HBV DNA incubated for 8 days by real-time PCR analysis; format: functional, organism-based
[15] = Prodrug conversion in ICR mouse assessed as Cmax of 4-((4-(5-chloro-2-fluoro-6-((3-hydroxypropyl)amino)pyridin-3-yl)-1-oxophthalazin-2(1H)-yl)methyl)benzonitrile metabolite at 20 mg/kg, po measured for 24 hrs by LC-MS/MS analysis; format: ADME, organism-based; settings: in vivo
[16] = Prodrug conversion in ICR mouse assessed as half life of 4-((4-(5-chloro-2-fluoro-6-((3-hydroxypropyl)amino)pyridin-3-yl)-1-oxophthalazin-2(1H)-yl)methyl)benzonitrile metabolite at 20 mg/kg, po measured for 24 hrs by LC-MS/MS analysis; format: ADME, organism-based; settings: in vivo
Hepatitis B virus [17] = experiment: Antiviral activity against HBV in Balb/c mouse model infected with adeno-associated virus harbouring HBV 1.3 genome assessed as reduction in intrahepatic HBcAg level administered orally twice daily for 4 weeks by Western blot analysis; format: functional, organism-based; settings: dose 50-75 mg/kg, route po
Hepatitis B virus [18] = experiment: Antiviral activity against HBV in Balb/c mouse model infected with adeno-associated virus harbouring HBV 1.3 genome assessed as reduction in intrahepatic HBV DNA administered orally twice daily for 4 weeks by Southern blot analysis; format: functional, organism-based; settings: dose 50-75 mg/kg, route po
Hepatitis B virus [19] = experiment: Antiviral activity against HBV in Balb/c mouse model infected with adeno-associated virus harbouring HBV 1.3 genome assessed as reduction in plasma HBsAg level at 100 mg/kg, po bid for 7 weeks followed by drug removal measured after 8 weeks by chemiluminescence immunoassay; format: functional, organism-based
Hepatitis B virus [20] = experiment: Antiviral activity against HBV in Balb/c mouse model infected with adeno-associated virus harbouring HBV 1.3 genome assessed as reduction in cytoplasmic HBcAg level at 50 to 75 mg/kg, po bid for 4 weeks by IHC analysis; format: functional, organism-based; settings: dose 50-75 mg/kg
[21] = Prodrug conversion in ICR mouse assessed as half life of 3-((3-chloro-5-(3-(4-cyanobenzyl)-4-oxo-3,4-dihydrophthalazin-1-yl)-6-fluoropyridin-2-yl)amino)propanoic acid metabolite at 20 mg/kg, po measured for 24 hrs by LC-MS/MS analysis; format: ADME, organism-based; settings: in vivo
Hepatitis B virus [22] = experiment: Antiviral activity against HBV in Balb/c mouse model infected with adeno-associated virus harbouring HBV 1.3 genome assessed as reduction in plasma HBV DNA at 100 mg/kg, po bid for 7 weeks followed by drug removal measured after 8 weeks by real-time PCR analysis; format: functional, organism-based
[23] = Toxicity in Balb/c mouse model infected with adeno-associated virus harbouring HBV 1.3 genome at 100 mg/kg, po bid; format: organism-based; settings: in vivo
Hepatitis B virus [24] = experiment: Antiviral activity against HBV in Balb/c mouse model infected with adeno-associated virus harbouring HBV 1.3 genome assessed as reduction in serum HBV DNA administered orally twice daily for 4 weeks by real-time PCR analysis; format: functional, organism-based; settings: dose 25-75 mg/kg, route po
[25] = Prodrug conversion in ICR mouse assessed as Tmax of 4-((4-(5-chloro-2-fluoro-6-((3-hydroxypropyl)amino)pyridin-3-yl)-1-oxophthalazin-2(1H)-yl)methyl)benzonitrile metabolite at 20 mg/kg, po measured for 24 hrs by LC-MS/MS analysis; format: ADME, organism-based; settings: in vivo
Hepatitis B virus [26] = experiment: Antiviral activity against HBV in Balb/c mouse model infected with adeno-associated virus harbouring HBV 1.3 genome assessed as reduction in plasma HBeAg level at 100 mg/kg, po bid for 7 weeks followed by drug removal measured after 8 weeks by chemiluminescence immunoassay; format: functional, organism-based
[27] = Prodrug conversion in ICR mouse assessed as AUClast of 4-((4-(5-chloro-2-fluoro-6-((3-hydroxypropyl)amino)pyridin-3-yl)-1-oxophthalazin-2(1H)-yl)methyl)benzonitrile metabolite at 20 mg/kg, po measured for 24 hrs by LC-MS/MS analysis; format: ADME, organism-based; settings: in vivo
Hepatitis B virus [28] = experiment: Antiviral activity against HBV in mouse model infected with adeno-associated virus harbouring HBV genome assessed as log reduction in HBsAg at 20 mg/kg, po qd for 8 weeks; format: functional
Hepatitis B virus [29] = experiment: Antiviral activity against HBV in mouse model infected with adeno-associated virus harbouring HBV genome assessed as log reduction in HBV DNA at 20 mg/kg, po qd for 8 weeks; format: functional
Hepatitis B virus [30] = experiment: Antiviral activity against HBV in mouse model infected with adeno-associated virus harbouring HBV genome assessed as log reduction in HBeAg at 20 mg/kg, po qd for 8 weeks; format: functional
Mus musculus [31] = experiment: Effect on HBeAg expression in Balb/c mouse model infected with adeno-associated virus harbouring HBV 1.3 genome at 1 mg/kg, po qd for 7 weeks followed by drug removal measured after 8 weeks by chemiluminescence immunoassay; format: functional, organism-based
Mus musculus [32] = experiment: Effect on intrahepatic HBcAg expression in Balb/c mouse model infected with adeno-associated virus harbouring HBV 1.3 genome at 1 mg/kg, po qd for 4 weeks by Western blot analysis; format: functional, organism-based
Mus musculus [33] = experiment: Effect on HBsAg expression in Balb/c mouse model infected with adeno-associated virus harbouring HBV 1.3 genome at 1 mg/kg, po qd for 7 weeks followed by drug removal measured after 8 weeks by chemiluminescence immunoassay; format: functional, organism-based
Hepatitis B virus [34] = experiment: Antiviral activity against HBV in Balb/c mouse model infected with adeno-associated virus harbouring HBV 1.3 genome assessed as reduction in intrahepatic HBV DNA at 1 mg/kg, po qd for 4 weeks by Southern blot analysis; format: functional, organism-based
Hepatitis B virus [35] = experiment: Antiviral activity against HBV in Balb/c mouse model infected with adeno-associated virus harbouring HBV 1.3 genome assessed as reduction in plasma HBV DNA at 1 mg/kg, po qd for 7 weeks followed by drug removal measured after 8 weeks by real-time PCR analysis; format: functional, organism-based

Row | Compound | Tmax [1] [h] | inhibition (HepG2.2.15 [2]) | Activity (Hepatitis B virus [3]) | CC50 at 192 h [5] [µM] | inhibition (HepG2.2.15 [6]) | Activity (Hepatitis B virus [7]) | AUClast [8] [µg·h/mL] | Cmax [10] [µg/mL] | Activity (Hepatitis B virus [11]) | Cmax [15] [µg/mL] | AUClast [27] [µg·h/mL] | further results
1 | N#Cc1ccc(Cn2nc(-c3cc(Cl)c(NCCCO)nc3F)c3ccccc3c2=O)cc1 | 2.67 | inactive | Active | > 100 | inactive | Dose-Dependent Effect | 0.498 | 0.0622 | Dose-Dependent Effect | – | – | half-life [4]: 0.99 h; AUC(0-t) at 24 h [9]: 0.0614 µg·h/mL; Tmax [12]: 2 h; Cmax [13]: 0.027 µg/mL
2 | N#Cc1ccc(Cn2nc(-c3cc(Cl)c(NCCC(=O)O)nc3F)c3ccccc3c2=O)cc1 | – | inactive | Active | > 100 | inactive | Dose-Dependent Effect | – | – | Dose-Dependent Effect | – | – | EC50 (Hepatitis B virus [14]): 1.29 µM and 0.17 µM
3 | CC(C)[C@H](N)C(=O)OCCCNc1nc(F)c(-c2nn(Cc3ccc(C#N)cc3)c(=O)c3ccccc23)cc1Cl | 1.67 | inactive | Active | 63.1 | inactive | Dose-Dependent Effect | 13.56 | 3.729 | Dose-Dependent Effect | 1.065 | 2.296 | t1/2 [16]: 2.32 h; Activity (Hepatitis B virus [17]): Dose-Dependent Effect; Activity (Hepatitis B virus [18]): Dose-Dependent Effect; Activity (Hepatitis B virus [19]): Active; Activity (Hepatitis B virus [20]): Dose-Dependent Effect; t1/2 [21]: 2.85 h; Activity (Hepatitis B virus [22]): Active; Activity [23]: Non-Toxic; Activity (Hepatitis B virus [24]): Dose-Dependent Effect; Tmax [25]: 0.42 h; Activity (Hepatitis B virus [26]): Active
4 | CC(C)OC(=O)[C@@H](C)N[P@](=O)(OCCCNc1nc(F)c(-c2nn(Cc3ccc(C#N)cc3)c(=O)c3ccccc23)cc1Cl)Oc1ccccc1 (single isomer, unassigned) | – | – | – | – | – | – | 2.727 | 0.321 | – | 0.0482 | 0.186 | –
5 | CCOC(=O)C1=C(CN2CCN3C(=O)N(CC(C)(C)C(=O)O)C[C@@H]3C2)N=C(c2nccs2)N[C@H]1c1cccc(F)c1C [LINVENCORVIR] | – | – | – | – | – | – | – | – | – | – | – | log(activity) (Hepatitis B virus [28]): 2.4; log(activity) (Hepatitis B virus [29]): 3; log(activity) (Hepatitis B virus [30]): 1.5
6 | C=C1[C@H](CO)[C@@H](O)C[C@@H]1n1cnc2c(=O)[nH]c(N)nc21 [ENTECAVIR ANHYDROUS] | – | – | – | > 1 | – | – | – | – | – | – | – | Activity (Mus musculus [31]): inactive; Activity (Mus musculus [32]): inactive; Activity (Mus musculus [33]): inactive; Activity (Hepatitis B virus [34]): Active; Activity (Hepatitis B virus [35]): Active
